Laboratory results taken from ChEMBL document CHEMBL1201862, “PubChem BioAssay data set” (2004).
Calls of active or inactive are those of the source.

Key:
[1] = (§1) Counterscreen for antagonists of the orexin 1 receptor (OX1R; HCRTR1): Fluorescence-based cell-based high throughput dose response assay to identify antagonists of the parental CHO cell line. [Related pubchem assays (depositor defined):AID434989, AID435008, AID463079, AID485270, AID492963, AID492964, AID492965, AID493232, AID504699, AID504701]; type: functional
H4 = assay: Luminescence Cell-Based Dose Response HTS to Identify Activators of 5'UTR Stem-Loop Driven Prion Protein mRNA Translation in H4 Neuroglioblastoma Cells. [Related pubchem assays: 1829 (Project Summary), 1814 (Primary HTS)]; type: functional; settings: Homo sapiens
Orexin receptor type 2 [2] = target: T1, Orexin receptor type 2 (Homo sapiens, UniProt O43614); assay: Counterscreen assay for antagonists of the orexin 1 receptor (OX1R; HCRTR1): Homogeneous Time Resolved Fluorescence (HTRF)-based cell-based dose response assay for antagonists of the orexin 2 receptor (OX2R; HCRTR2), run by assay provider.; type: functional
T1 sequence (O43614 whole entry): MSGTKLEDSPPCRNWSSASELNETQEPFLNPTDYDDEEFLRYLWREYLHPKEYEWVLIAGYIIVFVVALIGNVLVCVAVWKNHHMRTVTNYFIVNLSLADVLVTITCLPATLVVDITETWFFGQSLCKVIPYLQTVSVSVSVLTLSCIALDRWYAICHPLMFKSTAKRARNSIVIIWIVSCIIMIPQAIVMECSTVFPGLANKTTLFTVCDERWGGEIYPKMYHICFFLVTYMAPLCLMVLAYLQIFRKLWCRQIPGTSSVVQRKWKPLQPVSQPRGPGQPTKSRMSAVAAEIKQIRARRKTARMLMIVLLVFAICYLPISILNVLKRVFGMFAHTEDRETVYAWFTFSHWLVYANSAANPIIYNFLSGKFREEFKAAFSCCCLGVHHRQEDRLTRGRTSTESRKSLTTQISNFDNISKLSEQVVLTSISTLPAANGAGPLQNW

[3] = Luminescence Cell-Based Dose Confirmation HTS to Identify Activators of 5'UTR Stem-Loop Driven Alpha-Synuclein mRNA Translation in H4 Neuroglioblastoma Cells. [Related pubchem assays: 1829 (Project Summary), 1814 (Primary HTS)]; type: functional
[4] = Luminescence Cell-Based Dose Response HTS to Identify Activators of Luciferase Translation or Activity in H4 […] Cells. [Related pubchem assays: 1829 (Project Summary), 1814 (Primary HTS)]; type: functional
[5] = target: T2, Orexin/Hypocretin receptor type 1 (Homo sapiens, UniProt O43613); assay: (§2) Fluorescence-based cell-based high throughput dose response assay for antagonists of the orexin 1 receptor (OX1R; HCRTR1). [Related pubchem assays (depositor defined):AID434989, AID435008, AID463079, AID485270, AID492963, AID492964, AID492965, AID493232, AID504717, AID504718]; type: functional
T2 sequence (O43613 whole entry): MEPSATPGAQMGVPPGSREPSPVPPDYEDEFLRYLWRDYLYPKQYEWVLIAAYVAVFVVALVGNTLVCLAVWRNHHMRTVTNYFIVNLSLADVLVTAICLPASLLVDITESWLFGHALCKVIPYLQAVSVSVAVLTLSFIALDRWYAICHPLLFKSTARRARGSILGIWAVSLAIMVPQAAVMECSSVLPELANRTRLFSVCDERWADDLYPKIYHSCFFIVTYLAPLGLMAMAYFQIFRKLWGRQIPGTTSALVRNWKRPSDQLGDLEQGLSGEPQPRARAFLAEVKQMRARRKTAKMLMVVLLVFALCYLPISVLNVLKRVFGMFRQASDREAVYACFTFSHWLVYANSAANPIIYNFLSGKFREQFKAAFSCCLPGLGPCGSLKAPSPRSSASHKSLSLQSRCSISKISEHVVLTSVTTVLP

[6] = target: T2, Orexin/Hypocretin receptor type 1; assay: as §2, with “Homogeneous Time Resolved Fluorescence (HTRF)-based” for “Fluorescence-based”; type: functional
Orexin receptor type 2 [7] = target: T1, Orexin receptor type 2; assay: Counterscreen assay for antagonists of the orexin 1 receptor (OX1R; HCRTR1): Fluorescence-based cell-based dose response assay for antagonists of the orexin 2 receptor (OX2R; HCRTR2), run by assay provider.; type: functional
CHO-K1 = assay: as §1, with “Homogeneous time resolved fluorescence (HTRF)-based” for “Fluorescence-based”, “cell-based” for “cell-based high throughput”, “CHO-K1” for “CHO”; type: functional; settings: Cricetulus griseus;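 note: potency for inhibition of ATP-stimulated IP1 production as antagonists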
[8] = target: Ras and Rab interactor 1/Tyrosine-protein kinase ABL1 (Homo sapiens, UniProt P00519+Q13671); type: functional;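 note: biochemical TR-FRET dose-response test measuring inhibition of binding between Rin1 and Abl proteins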
Ras and Rab interactor 1/Tyrosine-protein kinase ABL1, sequence (P00519 whole entry): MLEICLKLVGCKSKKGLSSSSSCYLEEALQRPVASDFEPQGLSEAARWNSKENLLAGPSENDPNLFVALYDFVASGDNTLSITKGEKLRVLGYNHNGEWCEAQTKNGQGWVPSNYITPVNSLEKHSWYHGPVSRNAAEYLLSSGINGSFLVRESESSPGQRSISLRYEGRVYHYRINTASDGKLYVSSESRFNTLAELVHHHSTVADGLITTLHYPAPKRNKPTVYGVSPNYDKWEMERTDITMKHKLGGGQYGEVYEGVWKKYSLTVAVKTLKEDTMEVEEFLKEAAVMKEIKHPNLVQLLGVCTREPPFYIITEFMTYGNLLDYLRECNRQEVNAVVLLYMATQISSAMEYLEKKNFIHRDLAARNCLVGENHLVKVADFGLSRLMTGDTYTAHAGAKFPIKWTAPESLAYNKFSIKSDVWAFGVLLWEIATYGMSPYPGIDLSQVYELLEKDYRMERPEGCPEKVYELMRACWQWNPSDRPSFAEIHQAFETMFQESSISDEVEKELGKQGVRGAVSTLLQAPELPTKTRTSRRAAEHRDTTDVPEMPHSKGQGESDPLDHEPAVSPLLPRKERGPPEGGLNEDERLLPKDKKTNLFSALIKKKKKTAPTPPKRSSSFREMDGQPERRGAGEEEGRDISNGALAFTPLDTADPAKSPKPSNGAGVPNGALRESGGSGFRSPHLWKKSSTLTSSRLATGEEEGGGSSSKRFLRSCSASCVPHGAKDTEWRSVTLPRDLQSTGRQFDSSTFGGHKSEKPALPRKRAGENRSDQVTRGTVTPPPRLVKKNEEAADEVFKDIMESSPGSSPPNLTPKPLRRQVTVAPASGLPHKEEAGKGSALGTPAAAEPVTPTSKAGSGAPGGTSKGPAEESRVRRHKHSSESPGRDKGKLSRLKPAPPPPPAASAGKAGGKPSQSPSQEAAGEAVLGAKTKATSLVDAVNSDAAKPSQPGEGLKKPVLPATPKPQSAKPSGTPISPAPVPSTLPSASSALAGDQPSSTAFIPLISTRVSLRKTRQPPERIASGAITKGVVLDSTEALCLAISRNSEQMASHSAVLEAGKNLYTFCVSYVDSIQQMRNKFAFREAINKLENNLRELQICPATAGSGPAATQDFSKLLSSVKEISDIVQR
Ras and Rab interactor 1/Tyrosine-protein kinase ABL1, sequence (Q13671 whole entry): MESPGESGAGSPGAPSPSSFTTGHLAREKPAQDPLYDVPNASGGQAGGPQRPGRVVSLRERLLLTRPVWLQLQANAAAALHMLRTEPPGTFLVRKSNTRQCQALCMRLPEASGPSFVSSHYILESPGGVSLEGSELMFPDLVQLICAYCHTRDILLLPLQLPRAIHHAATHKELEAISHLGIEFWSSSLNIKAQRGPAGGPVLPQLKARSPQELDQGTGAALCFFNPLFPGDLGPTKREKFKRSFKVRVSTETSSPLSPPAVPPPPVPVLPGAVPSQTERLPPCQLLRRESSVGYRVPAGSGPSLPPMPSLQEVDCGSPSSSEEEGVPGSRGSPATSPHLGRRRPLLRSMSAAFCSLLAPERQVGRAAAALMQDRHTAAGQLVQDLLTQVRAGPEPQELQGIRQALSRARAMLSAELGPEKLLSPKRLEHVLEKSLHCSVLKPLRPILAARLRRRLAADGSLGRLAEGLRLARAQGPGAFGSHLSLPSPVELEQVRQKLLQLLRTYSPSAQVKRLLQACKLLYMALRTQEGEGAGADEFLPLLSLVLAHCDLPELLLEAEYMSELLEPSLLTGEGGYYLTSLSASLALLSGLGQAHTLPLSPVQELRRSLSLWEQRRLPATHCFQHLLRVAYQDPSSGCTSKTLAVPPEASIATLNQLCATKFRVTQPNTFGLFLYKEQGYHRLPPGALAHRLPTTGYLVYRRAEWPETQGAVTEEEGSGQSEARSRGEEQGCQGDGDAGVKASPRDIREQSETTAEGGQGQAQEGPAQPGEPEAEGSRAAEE

[9] = target: T3, Sentrin-specific protease 6 (Homo sapiens, UniProt Q9GZR1); assay: SENP6 protease inhibitors, SAR follow-up, biochemical, luminescence, set 2 (AID 588598); type: functional
T3 sequence (Q9GZR1 whole entry): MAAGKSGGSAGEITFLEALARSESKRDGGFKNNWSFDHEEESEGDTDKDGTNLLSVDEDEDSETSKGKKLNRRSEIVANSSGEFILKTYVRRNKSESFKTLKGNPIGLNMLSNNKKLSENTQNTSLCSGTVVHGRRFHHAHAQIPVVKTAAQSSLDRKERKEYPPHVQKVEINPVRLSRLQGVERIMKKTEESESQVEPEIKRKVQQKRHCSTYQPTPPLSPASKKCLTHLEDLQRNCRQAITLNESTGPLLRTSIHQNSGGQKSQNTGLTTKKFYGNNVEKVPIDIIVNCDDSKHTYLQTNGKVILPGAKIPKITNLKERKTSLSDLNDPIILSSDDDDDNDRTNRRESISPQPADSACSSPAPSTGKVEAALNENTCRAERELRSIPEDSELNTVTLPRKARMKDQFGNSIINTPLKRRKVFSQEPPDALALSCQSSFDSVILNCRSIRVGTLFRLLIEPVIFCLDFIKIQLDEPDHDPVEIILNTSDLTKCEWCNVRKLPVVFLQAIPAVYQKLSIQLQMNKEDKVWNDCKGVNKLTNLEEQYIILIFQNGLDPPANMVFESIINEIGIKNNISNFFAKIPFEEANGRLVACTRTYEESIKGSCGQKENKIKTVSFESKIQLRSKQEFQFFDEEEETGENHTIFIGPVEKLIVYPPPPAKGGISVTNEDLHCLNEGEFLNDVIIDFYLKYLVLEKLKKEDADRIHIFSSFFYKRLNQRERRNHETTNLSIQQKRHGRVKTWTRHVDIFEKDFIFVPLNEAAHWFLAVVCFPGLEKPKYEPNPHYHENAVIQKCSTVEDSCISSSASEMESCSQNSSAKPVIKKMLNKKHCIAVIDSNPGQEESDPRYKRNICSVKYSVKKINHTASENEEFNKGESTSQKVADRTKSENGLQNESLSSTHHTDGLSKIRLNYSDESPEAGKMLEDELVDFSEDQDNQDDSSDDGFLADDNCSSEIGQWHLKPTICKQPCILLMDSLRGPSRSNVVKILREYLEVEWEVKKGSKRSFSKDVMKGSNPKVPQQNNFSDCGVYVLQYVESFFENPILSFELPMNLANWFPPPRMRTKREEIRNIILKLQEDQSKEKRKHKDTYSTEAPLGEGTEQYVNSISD

[10] = target: T4, Sentrin-specific protease 8 (Homo sapiens, UniProt Q96LD8); assay: SENP8 protease inhibitors, SAR follow-up, biochemical, luminescence, set 2 (AID 588601); type: functional
T4 sequence (Q96LD8 whole entry): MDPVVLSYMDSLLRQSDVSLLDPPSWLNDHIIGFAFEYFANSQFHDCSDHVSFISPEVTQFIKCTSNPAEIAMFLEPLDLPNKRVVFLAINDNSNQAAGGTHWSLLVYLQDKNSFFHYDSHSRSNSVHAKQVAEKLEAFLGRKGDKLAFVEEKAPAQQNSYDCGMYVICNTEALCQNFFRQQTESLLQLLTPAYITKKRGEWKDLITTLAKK

[11] = target: T5, Sentrin-specific protease 7 (Homo sapiens, UniProt Q9BQF6); assay: SENP7 protease inhibitors, SAR follow-up, biochemical, luminescence, set 2 (AID 588600); type: functional
T5 sequence (Q9BQF6 whole entry): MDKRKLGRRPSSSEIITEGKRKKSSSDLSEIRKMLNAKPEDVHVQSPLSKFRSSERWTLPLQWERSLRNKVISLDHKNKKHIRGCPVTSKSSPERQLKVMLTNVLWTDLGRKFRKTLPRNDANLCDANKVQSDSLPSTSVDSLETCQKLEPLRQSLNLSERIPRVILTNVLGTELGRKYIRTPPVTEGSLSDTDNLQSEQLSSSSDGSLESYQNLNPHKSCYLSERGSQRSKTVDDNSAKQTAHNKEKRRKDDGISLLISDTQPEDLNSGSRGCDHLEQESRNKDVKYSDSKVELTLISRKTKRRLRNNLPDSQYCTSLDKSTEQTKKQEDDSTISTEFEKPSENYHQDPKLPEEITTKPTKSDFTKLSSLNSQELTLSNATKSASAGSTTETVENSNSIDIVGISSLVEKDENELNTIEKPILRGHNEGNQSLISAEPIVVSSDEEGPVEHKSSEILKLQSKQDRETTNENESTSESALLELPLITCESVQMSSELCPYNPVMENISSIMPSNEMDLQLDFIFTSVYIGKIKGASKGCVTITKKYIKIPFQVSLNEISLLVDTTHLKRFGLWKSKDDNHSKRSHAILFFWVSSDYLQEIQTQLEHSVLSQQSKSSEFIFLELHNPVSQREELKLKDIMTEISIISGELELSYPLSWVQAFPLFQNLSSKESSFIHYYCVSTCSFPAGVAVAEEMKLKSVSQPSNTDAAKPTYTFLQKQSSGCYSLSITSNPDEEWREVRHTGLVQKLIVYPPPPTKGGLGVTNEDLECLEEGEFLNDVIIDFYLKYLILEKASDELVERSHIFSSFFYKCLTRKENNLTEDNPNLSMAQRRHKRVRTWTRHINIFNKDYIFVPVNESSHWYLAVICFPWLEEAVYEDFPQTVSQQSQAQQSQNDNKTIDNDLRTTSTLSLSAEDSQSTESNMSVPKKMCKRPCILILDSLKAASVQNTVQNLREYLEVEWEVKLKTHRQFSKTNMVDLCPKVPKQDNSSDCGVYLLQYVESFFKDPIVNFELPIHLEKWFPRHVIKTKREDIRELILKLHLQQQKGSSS

Caspase-3 = target: T6, Caspase-3 (Homo sapiens, UniProt P42574); assay: caspase-3 inhibitors as off-family protease, SAR follow-up, selectivity assay for SENP protease inhibitor project, biochemical, luminescence, set 2 (AID 588599); type: functional
T6 sequence (P42574 whole entry): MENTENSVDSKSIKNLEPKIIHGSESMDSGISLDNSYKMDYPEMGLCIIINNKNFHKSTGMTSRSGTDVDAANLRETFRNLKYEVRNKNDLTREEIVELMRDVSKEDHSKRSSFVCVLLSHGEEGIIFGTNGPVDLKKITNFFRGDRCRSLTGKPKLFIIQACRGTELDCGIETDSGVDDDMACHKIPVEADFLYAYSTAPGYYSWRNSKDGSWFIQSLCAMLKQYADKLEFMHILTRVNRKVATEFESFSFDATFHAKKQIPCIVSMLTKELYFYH

Melanocortin receptor 4 = Melanocortin receptor 4 (Homo sapiens, UniProt P32245); type: functional, cell-based;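 note: Cell-based assay with luminescence read-out, confirmatory dose-response testing for agonist activity of biased ligands at MC4R; human U2OS cells with tagged receptor and beta-arrestin; potency of agonists that increase receptor coupling to beta-arrestin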
Melanocortin receptor 4, sequence (P32245 whole entry): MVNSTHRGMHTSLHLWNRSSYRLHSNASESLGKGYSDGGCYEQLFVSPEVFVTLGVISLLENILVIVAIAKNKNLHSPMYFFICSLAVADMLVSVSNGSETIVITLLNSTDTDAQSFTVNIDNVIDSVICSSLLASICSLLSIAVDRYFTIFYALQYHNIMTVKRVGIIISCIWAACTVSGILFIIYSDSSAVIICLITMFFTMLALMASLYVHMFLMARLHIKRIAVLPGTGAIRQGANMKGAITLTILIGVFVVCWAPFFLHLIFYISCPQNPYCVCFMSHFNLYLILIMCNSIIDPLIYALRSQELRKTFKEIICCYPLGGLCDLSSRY

Aurora kinase B = Aurora kinase B (Homo sapiens, UniProt Q96GD4); type: functional
Aurora kinase B, sequence (Q96GD4 whole entry): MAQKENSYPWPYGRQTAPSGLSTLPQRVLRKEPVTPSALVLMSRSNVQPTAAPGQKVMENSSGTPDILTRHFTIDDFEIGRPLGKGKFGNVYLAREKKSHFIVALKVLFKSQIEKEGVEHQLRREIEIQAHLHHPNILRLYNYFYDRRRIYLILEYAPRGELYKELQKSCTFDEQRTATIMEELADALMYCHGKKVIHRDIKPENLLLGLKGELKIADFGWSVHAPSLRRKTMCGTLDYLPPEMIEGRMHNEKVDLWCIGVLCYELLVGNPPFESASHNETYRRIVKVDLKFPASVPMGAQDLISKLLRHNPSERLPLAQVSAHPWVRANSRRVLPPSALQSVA

Aurora kinase A = Aurora kinase A (Homo sapiens, UniProt O14965); type: functional;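 note: value from the Navigating the Kinome kinase panel profiling, panel entry STK6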
Aurora kinase A, sequence (O14965 whole entry): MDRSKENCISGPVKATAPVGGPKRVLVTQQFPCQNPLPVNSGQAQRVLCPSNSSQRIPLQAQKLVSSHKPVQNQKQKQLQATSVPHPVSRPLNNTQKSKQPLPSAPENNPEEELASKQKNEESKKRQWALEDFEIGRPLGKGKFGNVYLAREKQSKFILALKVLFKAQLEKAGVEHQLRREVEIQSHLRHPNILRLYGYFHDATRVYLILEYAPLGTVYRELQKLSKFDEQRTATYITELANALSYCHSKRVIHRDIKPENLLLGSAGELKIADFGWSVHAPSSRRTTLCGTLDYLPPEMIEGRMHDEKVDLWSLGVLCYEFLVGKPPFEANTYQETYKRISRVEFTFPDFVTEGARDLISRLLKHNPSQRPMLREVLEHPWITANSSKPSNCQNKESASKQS

[12] = target: Vascular endothelial growth factor receptor 2 (Homo sapiens, UniProt P35968); type: functional
Vascular endothelial growth factor receptor 2, sequence (P35968 whole entry): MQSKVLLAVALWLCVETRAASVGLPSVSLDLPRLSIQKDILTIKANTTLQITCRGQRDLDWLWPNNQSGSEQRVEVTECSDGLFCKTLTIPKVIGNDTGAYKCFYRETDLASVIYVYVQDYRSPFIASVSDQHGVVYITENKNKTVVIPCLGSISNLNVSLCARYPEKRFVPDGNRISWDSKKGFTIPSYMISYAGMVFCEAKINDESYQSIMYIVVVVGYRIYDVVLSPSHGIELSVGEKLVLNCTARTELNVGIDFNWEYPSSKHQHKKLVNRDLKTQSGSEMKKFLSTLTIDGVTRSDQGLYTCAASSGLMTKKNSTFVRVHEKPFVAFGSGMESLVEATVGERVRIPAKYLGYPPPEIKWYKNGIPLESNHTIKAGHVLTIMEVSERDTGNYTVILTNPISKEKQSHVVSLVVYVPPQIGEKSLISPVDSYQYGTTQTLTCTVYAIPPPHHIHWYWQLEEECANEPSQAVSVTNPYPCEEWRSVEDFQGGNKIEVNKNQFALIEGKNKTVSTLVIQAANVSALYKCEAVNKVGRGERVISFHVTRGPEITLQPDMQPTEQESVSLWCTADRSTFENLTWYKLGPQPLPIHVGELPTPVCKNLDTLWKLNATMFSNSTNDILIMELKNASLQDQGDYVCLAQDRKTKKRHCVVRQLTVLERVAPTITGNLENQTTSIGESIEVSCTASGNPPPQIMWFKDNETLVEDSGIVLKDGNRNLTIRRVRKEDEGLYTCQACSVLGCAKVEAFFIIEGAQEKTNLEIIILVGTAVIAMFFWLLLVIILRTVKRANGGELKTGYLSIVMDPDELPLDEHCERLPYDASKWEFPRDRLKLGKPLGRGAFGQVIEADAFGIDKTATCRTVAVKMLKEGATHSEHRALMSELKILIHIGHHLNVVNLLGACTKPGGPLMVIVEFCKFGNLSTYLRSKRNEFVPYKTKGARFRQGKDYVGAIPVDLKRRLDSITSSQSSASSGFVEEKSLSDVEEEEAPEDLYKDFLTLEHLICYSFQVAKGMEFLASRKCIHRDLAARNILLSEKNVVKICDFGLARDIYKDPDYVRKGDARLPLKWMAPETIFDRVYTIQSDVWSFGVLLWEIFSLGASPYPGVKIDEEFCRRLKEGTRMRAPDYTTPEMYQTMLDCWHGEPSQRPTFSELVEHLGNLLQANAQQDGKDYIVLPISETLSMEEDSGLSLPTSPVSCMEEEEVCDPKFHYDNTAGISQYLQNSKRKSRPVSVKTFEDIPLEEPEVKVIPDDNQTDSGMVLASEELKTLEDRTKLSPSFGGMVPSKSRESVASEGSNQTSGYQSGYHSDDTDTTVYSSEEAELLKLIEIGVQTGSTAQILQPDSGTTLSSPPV

With Cc1nc2c(-c3ccc(Cl)cc3)cnn2c2c1CCC2 the IC50 [1] was > 49.8 µM (inactive), the EC50 (H4) was 24.5 µM (active) and the IC50 (Orexin receptor type 2 [2]) was > 50 µM (inactive). The EC50 [3] was > 120 µM (not active), the EC50 [4] was 11.1 µM (active) and the IC50 [5] was 15 µM (inactive). The IC50 [6] was 4.59 µM (active), the IC50 (Orexin receptor type 2 [7]) was > 88.8 µM (inactive) and the IC50 (CHO-K1) was > 66.3 µM (inactive).

With COC(=O)c1ccc(COC(=O)C2CCN(S(=O)(=O)c3ccc(C)c(C)c3)CC2)o1 the IC50 [8] was 12.4 µM (inactive).

In the case of CCn1c2ccccc2c2cc(NC(=O)c3cccc(OC)c3)ccc21, the IC50 [1] is reported as > 49.8 µM (inactive), the EC50 (H4) is reported as 40.1 µM (active) and the IC50 (Orexin receptor type 2 [2]) is reported as > 50 µM (inactive). The EC50 [3] was 34.8 µM (active), the EC50 [4] was 56.6 µM (active) and the IC50 [5] was 0.965 µM (active). The IC50 [6] was 0.2 µM (active), the IC50 (Orexin receptor type 2 [7]) was 77.6 µM (inactive) and the IC50 (CHO-K1) was > 66.2 µM (inactive).

With COc1ccc(N2CCN(C(=O)C(=O)c3c(C)[nH]c4ccccc34)CC2)cc1 the IC50 [9] was > 99 µM (inactive), the IC50 [10] was > 99 µM (inactive) and the IC50 [11] was > 99 µM (inactive). For the same compound, the IC50 (Caspase-3) was > 99 µM (inactive).

With NC(Cc1ccc(C(F)(F)F)cc1)c1csc(NC(=O)Nc2ccccc2Cl)n1 (stereo not given) the EC50 (Melanocortin receptor 4) was > 89.2 µM (inactive).

For Cc1ccc(-c2c(C#N)c(N)nc3cc(C)nn23)cc1, the Ki (Aurora kinase B) was 0.1 µM (active), the Ki (Aurora kinase A) was 0.501 µM (active) and the Ki [12] was 3.98 µM (active).

In the case of CCCCN1CCN(c2ccc(-c3nc4c(C(N)=O)cccc4[nH]3)cn2)CC1, the Ki (Aurora kinase B) is reported as 0.0794 µM (active), the Ki (Aurora kinase A) is reported as 1.26 µM (active) and the Ki [12] is reported as > 5.01 µM (inactive).
